# Results: US8952024B2, “Herbicidal pyrimidone derivatives” (E I du Pont de Nemours and Company, priority 2009, dated 2015)
# Tests used:
# Assay type in all cases: in vivo
# [1] = test system: ducksalad (Heteranthera limosa); assay: Test B flooded paddy test; details: for Plant response rating, Flood, Ducksalad: 250 g ai/ha, flooded paddy test, visual rating on 0 to 100 scale (0 no effect, 100 complete control) after 13 to 15 days; for Plant response rating, Ducksalad: Flood (flooded paddy test), 13 to 15 days; for Ducksalad plant response rating: Flood, 31 g ai/ha, scale 0 to 100 (0 no effect, 100 complete control)
# Summary of the method: (§1)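 Ratings are visual, 0–100 (100 = complete control), taken versus untreated controls 13 to 15 days after treatment in the greenhouse. Compound went straight into paddy water held 3 cm above soil, applied to 2-leaf-stage plants of four species.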
# [2] = test system: rice (Oryza sativa); assay: Test B flooded paddy test; details: for Plant response rating, Flood, Rice: 250 g ai/ha, flooded paddy test, visual rating on 0 to 100 scale (0 no effect, 100 complete control) after 13 to 15 days; for Plant response rating, Rice: Flood (flooded paddy test), 13 to 15 days; for Rice plant response rating: Flood, 31 g ai/ha, scale 0 to 100 (0 no effect, 100 complete control)
# Summary of the method: as §1
# [3] = test system: umbrella sedge (Cyperus difformis); assay: Test B flooded paddy test; details: for Plant response rating, Flood, Sedge, Umbrella: 250 g ai/ha, flooded paddy test, visual rating on 0 to 100 scale (0 no effect, 100 complete control) after 13 to 15 days; for Plant response rating, Sedge, Umbrella: Flood (flooded paddy test), 13 to 15 days; for Sedge, Umbrella plant response rating: Flood, 31 g ai/ha, scale 0 to 100 (0 no effect, 100 complete control)
# Summary of the method: as §1
# [4] = test system: barnyardgrass (Echinochloa crus-galli); assay: Test B flooded paddy test; details: for Plant response rating, Flood, Barnyardgrass: 250 g ai/ha, flooded paddy test, visual rating on 0 to 100 scale (0 no effect, 100 complete control) after 13 to 15 days; for Plant response rating, Barnyardgrass: Flood (flooded paddy test), 13 to 15 days; for Barnyardgrass plant response rating: Flood, 31 g ai/ha, scale 0 to 100 (0 no effect, 100 complete control)
# Summary of the method: as §1
# [5] = test system: large crabgrass (Digitaria sanguinalis); assay: Test A pre-/postemergence plant response
# Summary of the method: (§2)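 Seeds planted in loam soil/sand blend; test chemicals in non-phytotoxic solvent mixture with surfactant applied as directed soil spray preemergence and, concurrently, postemergence to plants 2–10 cm tall at one- to two-leaf stage. Greenhouse ~10 days; visual injury vs untreated controls, 0 (no effect) to 100 (complete control).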
# [6] = test system: giant foxtail (Setaria faberii); assay: Test A pre-/postemergence plant response
# Summary of the method: as §2
# [7] = test system: wheat (Triticum aestivum); assay: Test A pre-/postemergence plant response
# Summary of the method: as §2
# [8] = test system: morningglory (Ipomoea spp.); assay: Test A pre-/postemergence plant response
# Summary of the method: as §2
# [9] = test system: pigweed (Amaranthus retroflexus); assay: Test A pre-/postemergence plant response
# Summary of the method: as §2
# [10] = test system: velvetleaf (Abutilon theophrasti); assay: Test A pre-/postemergence plant response
# Summary of the method: as §2
# [11] = test system: barnyardgrass (Echinochloa crus-galli); assay: Test A pre-/postemergence plant response
# Summary of the method: as §2
# [12] = test system: corn (Zea mays); assay: Test A pre-/postemergence plant response
# Summary of the method: as §2
# [13] = 62 g ai/ha, scale of 0 to 100 where 0 is no effect and 100 is complete control
# [14] = Postemergence, 125 g ai/ha, 0 to 100 scale where 0 is no effect and 100 is complete control
# [15] = Postemergence, 500 g ai/ha, 0 to 100 scale, 0 = no effect, 100 = complete control, approx. ten days
# [16] = Preemergence, 125 g ai/ha, 0 to 100 scale, 0 = no effect, 100 = complete control
# [17] = Preemergence, 500 g ai/ha, visual injury, 0 to 100 scale (0 no effect, 100 complete control), approx. ten days
# [18] = 125 g ai/ha, scale 0 to 100, 0 is no effect, 100 is complete control
# [19] = Postemergence, 500 g ai/ha, visual injury, 0 to 100 scale (0 no effect, 100 complete control), approx. ten days
# [20] = Preemergence, 500 g ai/ha, 0 to 100 scale, 0 = no effect, 100 = complete control
smiles,measurement,setting,value
CCCCCc1ncc(C(=O)C2=C(O)CCCC2=O)c(=O)n1-c1ccccc1 [Compound 78],"Plant response rating, Flood, Ducksalad",[1],20
same,"Plant response rating, Ducksalad",[1]; [13],0
same,"Plant response rating, Flood, Rice",[2],20
same,"Plant response rating, Rice",[2]; [13],0
same,"Plant response rating, Flood, Sedge, Umbrella",[3],40
same,"Plant response rating, Sedge, Umbrella",[3]; [13],30
same,"Plant response rating, Flood, Barnyardgrass",[4],0
same,"Plant response rating, Barnyardgrass",[4]; [13],0
same,"Plant response rating, Crabgrass, Large",[5]; [14],30
same,"Plant response rating, Crabgrass, Large",[5]; [15],70
same,"Plant response rating, Crabgrass, Large",[5]; [16],10
same,"Plant response rating, Crabgrass, Large",[5]; [17],50
same,"Plant response rating, Foxtail, Giant",[6]; [14],20
same,"Plant response rating, Foxtail, Giant",[6]; [15],50
same,"Plant response rating, Foxtail, Giant",[6]; [16],0
same,"Plant response rating, Foxtail, Giant",[6]; [17],10
same,"Plant response rating, Wheat",[7]; [14],0
same,"Plant response rating, Wheat",[7]; [15],0
same,"Plant response rating, Wheat",[7]; [16],0
same,"Plant response rating, Wheat",[7]; [17],0
same,"Plant response rating, Morningglory",[8]; [14],70
same,"Plant response rating, Morningglory",[8]; [15],100
same,"Plant response rating, Morningglory",[8]; [16],0
same,"Plant response rating, Morningglory",[8]; [17],0
same,"Plant response rating, Pigweed",[9]; [14],100
same,"Plant response rating, Pigweed",[9]; [15],100
same,"Plant response rating, Pigweed",[9]; [16],50
same,"Plant response rating, Pigweed",[9]; [17],100
same,"Plant response rating, Velvetleaf",[10]; [14],100
same,"Plant response rating, Velvetleaf",[10]; [15],100
same,"Plant response rating, Velvetleaf",[10]; [16],20
same,"Plant response rating, Velvetleaf",[10]; [17],50
same,"Plant response rating, Barnyardgrass",[11]; [14],50
same,"Plant response rating, Barnyardgrass",[11]; [15],70
same,"Plant response rating, Barnyardgrass",[11]; [16],0
same,"Plant response rating, Barnyardgrass",[11]; [17],30
same,"Plant response rating, Corn",[12]; [14],0
same,"Plant response rating, Corn",[12]; [15],20
same,"Plant response rating, Corn",[12]; [16],0
same,"Plant response rating, Corn",[12]; [17],0
Cc1cc(-n2c(-c3cccc(Cl)c3)ncc(C(=O)C3=C(O)CCCC3=O)c2=O)ccc1F [Compound 133],"Plant response rating, Flood, Ducksalad",[1],100
same,"Plant response rating, Ducksalad",[1]; [13],60
same,"Plant response rating, Ducksalad",[1]; [18],100
same,Ducksalad plant response rating,[1],60
same,"Plant response rating, Flood, Rice",[2],0
same,"Plant response rating, Rice",[2]; [13],0
same,"Plant response rating, Rice",[2]; [18],0
same,Rice plant response rating,[2],0
same,"Plant response rating, Flood, Sedge, Umbrella",[3],100
same,"Plant response rating, Sedge, Umbrella",[3]; [13],60
same,"Plant response rating, Sedge, Umbrella",[3]; [18],95
same,"Sedge, Umbrella plant response rating",[3],0
same,"Plant response rating, Flood, Barnyardgrass",[4],0
same,"Plant response rating, Barnyardgrass",[4]; [13],0
same,"Plant response rating, Barnyardgrass",[4]; [18],0
same,Barnyardgrass plant response rating,[4],0
same,"Plant response rating, Crabgrass, Large",[5]; [14],40
same,"Plant response rating, Crabgrass, Large",[5]; [15],100
same,"Plant response rating, Crabgrass, Large",[5]; [16],50
same,"Plant response rating, Crabgrass, Large",[5]; [17],100
same,"Plant response rating, Foxtail, Giant",[6]; [14],20
same,"Plant response rating, Foxtail, Giant",[6]; [15],90
same,"Plant response rating, Foxtail, Giant",[6]; [16],40
same,"Plant response rating, Foxtail, Giant",[6]; [17],80
same,"Plant response rating, Wheat",[7]; [14],20
same,"Plant response rating, Wheat",[7]; [15],40
same,"Plant response rating, Wheat",[7]; [16],0
same,"Plant response rating, Wheat",[7]; [17],20
same,"Plant response rating, Morningglory",[8]; [14],40
same,"Plant response rating, Morningglory",[8]; [15],70
same,"Plant response rating, Morningglory",[8]; [16],0
same,"Plant response rating, Morningglory",[8]; [17],0
same,"Plant response rating, Pigweed",[9]; [14],80
same,"Plant response rating, Pigweed",[9]; [15],100
same,"Plant response rating, Pigweed",[9]; [16],40
same,"Plant response rating, Pigweed",[9]; [17],100
same,"Plant response rating, Velvetleaf",[10]; [14],100
same,"Plant response rating, Velvetleaf",[10]; [15],100
same,"Plant response rating, Velvetleaf",[10]; [16],50
same,"Plant response rating, Velvetleaf",[10]; [17],100
same,"Plant response rating, Barnyardgrass",[11]; [14],20
same,"Plant response rating, Barnyardgrass",[11]; [15],90
same,"Plant response rating, Barnyardgrass",[11]; [16],10
same,"Plant response rating, Barnyardgrass",[11]; [17],100
same,"Plant response rating, Corn",[12]; [14],10
same,"Plant response rating, Corn",[12]; [15],40
same,"Plant response rating, Corn",[12]; [16],0
same,"Plant response rating, Corn",[12]; [17],20
Cc1cc(F)ccc1-n1c(-c2cccc(Br)c2)ncc(C(=O)C2=C(O)CCCC2=O)c1=O [Compound 166],"Plant response rating, Ducksalad",[1]; [18],60
same,Ducksalad plant response rating,[1],0
same,"Plant response rating, Rice",[2]; [18],0
same,Rice plant response rating,[2],0
same,"Plant response rating, Sedge, Umbrella",[3]; [18],70
same,"Sedge, Umbrella plant response rating",[3],50
same,"Plant response rating, Barnyardgrass",[4]; [18],20
same,Barnyardgrass plant response rating,[4],0
same,"Plant response rating, Crabgrass, Large",[5]; [14],40
same,"Crabgrass, Large plant response rating",[5]; [19],90
same,"Plant response rating, Crabgrass, Large",[5]; [16],10
same,"Plant response rating, Crabgrass, Large",[5]; [20],70
same,"Plant response rating, Foxtail, Giant",[6]; [14],60
same,"Foxtail, Giant plant response rating",[6]; [19],90
same,"Plant response rating, Foxtail, Giant",[6]; [16],0
same,"Plant response rating, Foxtail, Giant",[6]; [20],20
same,"Plant response rating, Wheat",[7]; [14],0
same,Wheat plant response rating,[7]; [19],0
same,"Plant response rating, Wheat",[7]; [16],0
same,"Plant response rating, Wheat",[7]; [20],0
same,"Plant response rating, Morningglory",[8]; [14],100
same,"Plant response rating, Morningglory",[8]; [16],0
same,"Plant response rating, Morningglory",[8]; [20],0
same,"Plant response rating, Pigweed",[9]; [14],70
same,Pigweed plant response rating,[9]; [19],100
same,"Plant response rating, Pigweed",[9]; [16],0
same,"Plant response rating, Pigweed",[9]; [20],40
same,"Plant response rating, Velvetleaf",[10]; [14],100
same,Velvetleaf plant response rating,[10]; [19],100
same,"Plant response rating, Velvetleaf",[10]; [16],40
same,"Plant response rating, Velvetleaf",[10]; [20],100
same,"Plant response rating, Barnyardgrass",[11]; [14],80
same,Barnyardgrass plant response rating,[11]; [19],100
same,"Plant response rating, Barnyardgrass",[11]; [16],0
same,"Plant response rating, Barnyardgrass",[11]; [20],20
same,"Plant response rating, Corn",[12]; [14],30
same,Corn plant response rating,[12]; [19],40
same,"Plant response rating, Corn",[12]; [16],0
same,"Plant response rating, Corn",[12]; [20],0
